The target of this test is T1, integrin αvβ3 (Homo sapiens, UniProt P05106+P06756).
T1 construct: from tissue; host or cells: human placenta
Put plainly: Integrin αvβ3 assay (competition with vitronectin for solid phase-bound integrin αvβ3). The conditions noted are these: competition with human vitronectin for binding to solid phase-bound integrin αvβ3 from human placenta; qualitative ranking only. The method, then:
Integrin αvβ3 antagonists were identified and assessed by using an assay system based on competition between the natural integrin αvβ3 ligand vitronectin and the test substance for binding to solid phase-bound integrin αvβ3.
• Coat microtiter plates with 250 ng/ml integrin αvβ3 in 0.05 M NaHCO3 pH 9.2; 0.1 ml/well; • saturate with 1% milk powder/assay buffer; 0.3 ml/well; 0.5 h/RT • wash 3× with 0.05% Tween 20/assay buffer • test substance in 0.1% milk powder/assay buffer, 50 μl/well+0 μg/ml or 2 μg/ml human vitronectin (Boehringer Ingelheim T007) in 0.1% milk powder/assay buffer, 50 μl/well; 1 h/RT • wash 3× with 0.05% Tween 20/assay buffer • 1 μg/ml anti-human vitronectin antibody coupled to peroxidase (Kordia SAVN-APHRP) in 0.1% milk powder/assay buffer; 0.1 ml/well; 1 h/RT • wash 3× with 0.05% Tween 20/assay buffer • 0.1 ml/well peroxidase substrate • stop reaction with 0.1 ml/well 2 M H2SO4 • measure absorption at 450 nm
Integrin αvβ3: human placenta is solubilized with Nonidet, and integrin αvβ3 is affinity-purified on a GRGDSPK matrix (elution with EDTA). Contamination by integrin αIIbβ3 and human serum albumin, and the detergent and EDTA, are removed by anion exchange chromatography.
Assay buffer: 50 mM Tris pH 7.5; 100 mM NaCl; 1 mM CaCl2; 1 mM MgCl2; 10 μM MnCl2
Peroxidase substrate: mix 0.1 ml of TMB solution (42 mM TMB in DMSO) and 10 ml of substrate buffer (0.1 M Na acetate, pH 4.9) and then add 14.7 μl of 3% H2O2.
Various dilutions of the test substances are used in the assay, and the IC50 values are determined (concentration of the antagonist at which 50% of the ligand is displaced).

Turning to `CC(=O)OC1c2ccccc2C(=O)N(CC(=O)NCc2ccc(Nc3nc4ccccc4[nH]3)cc2)c2ccccc21` (stereo not shown) [Example I.B.37, 5-(2-{[4-(1H-Benzimidazol-2-ylamino)benzyl]amino}-2-oxoethyl)-6-oxo-6,11-dihydro-5H-dibenzo[b,e]azepin-11-yl acetate], the “IC50 values (concentration of the antagonist at which 50% of the ligand is displaced)” value is given as “best results”.

`CC(=O)OC1c2ccccc2C(=O)N(Cc2nc(C(=O)NCc3cc(CNc4ccccn4)cs3)cs2)c2ccccc21` (stereo not shown) [Example I.B.118, 6-Oxo-5-[(4-{[({4-[(2-pyridinylamino)methyl]-2-thienyl}methyl)-amino]carbonyl}-1,3-thiazol-2-yl)methyl]-6,11-dihydro-5H-dibenzo [b,e]azepin-11-yl acetate]: the “IC50 values (concentration of the antagonist at which 50% of the ligand is displaced)” value was “best results”.

For `CC(=O)OC1c2ccccc2C(=O)N(CC(=O)NCc2cnc(NC(=N)N)s2)c2ccccc21` (stereo not shown) [Example I.B.46, 5-(2-{[(2-{[Amino(imino)methyl]amino}-1,3-thiazol-5-yl)-methyl]amino}-2-oxoethyl)-6-oxo-6,11-dihydro-5H-dibenzo[b,e]-azepin-11-yl acetate], the “IC50 values (concentration of the antagonist at which 50% of the ligand is displaced)” value was “best results”.

Regarding `O=C(O)CC1c2ccccc2C(=O)N(CC(=O)NCc2ccc(NC(=O)NCc3ccccc3)cc2)c2ccccc21` (stereo not shown) [Example I.B.52, (5-{2-[(4-{[(Benzylamino)carbonyl]amino}benzyl)amino]-2-oxoethyl}-6-oxo-6,11-dihydro-5H-dibenzo[b,e]azepin-11-yl)acetic acid], the “IC50 values (concentration of the antagonist at which 50% of the ligand is displaced)” value is “best results”.

The values are drawn from patent publication US7105508B1, “Integrin receptors antagonists” (Abbott GmbH & Co. KG, priority 1999, dated 2006).
